≈ marks a conversion by molar mass, not a printed value.
What was measured:
Staphylococcus aureus [1] = assay: microbe, parasite or virus in culture; format: functional; conditions: ATCC25923, time 20 hrs
Staphylococcus aureus [2] = assay: microbe, parasite or virus in culture; format: functional; conditions: time 20 hrs
[3] = system: Staphylococcus epidermidis; assay: Antibacterial activity against methicillin-resistant Staphylococcus epidermidis assessed as inhibition of bacterial growth incubated for 20 hrs by absorbance based analysis; format: functional
Staphylococcus aureus [4] = assay: microbe, parasite or virus in culture; format: functional; conditions: ATCC29213, time 20 hrs
Escherichia coli = assay: microbe, parasite or virus in culture; format: functional; conditions: ATCC25922, time 20 hrs
[5] = Antibacterial activity against Salmonella pullorum assessed as inhibition of bacterial growth incubated for 20 hrs by absorbance based analysis; format: functional, Salmonella enterica subsp. enterica serovar Pullorum; conditions: Salmonella enterica
[6] = Metabolic stability in rat liver microsomes assessed as parent compound remaining incubated for 45 mins in the presence of NADPH by LC/MS analysis; format: ADME, Microsome; conditions: read-out: Stability
[7] = Metabolic stability in rat liver microsomes assessed as intrinsic clearance incubated for 45 mins in the presence of NADPH by LC/MS analysis; format: ADME, Microsome; conditions: read-out: CLH
[8] = Metabolic stability in rat liver microsomes assessed as half-life incubated for 45 mins in the presence of NADPH by LC/MS analysis; format: ADME, Microsome

Compound	MIC (Staphylococcus aureus [1]) [µg/mL]	MIC (Staphylococcus aureus [2]) [µg/mL]	MIC [3] [µg/mL]	MIC (Staphylococcus aureus [4]) [µg/mL]	MIC (Escherichia coli) [µg/mL]	MIC [5] [µg/mL]	remaining at 0.75 h [6] [%]	microsomal CLint [7] [µL/min/mg]	half-life [8] [min]
C=C[C@]1(C)C[C@@H](OC(=O)CSc2nc3cccc(OC)c3c(=O)[nH]2)[C@]2(C)[C@H](C)CC[C@]3(CCC(=O)[C@H]32)[C@@H](C)[C@@H]1O	0.25 (≈ 0.44 µM)	0.25 (≈ 0.44 µM)	4 (≈ 7.03 µM)	0.25 (≈ 0.44 µM)	> 64	> 64			
C=C[C@]1(C)C[C@@H](OC(=O)CN2CCN(Cc3nc4ccccc4c(=O)[nH]3)CC2)[C@]2(C)[C@H](C)CC[C@]3(CCC(=O)[C@H]32)[C@@H](C)[C@@H]1O	1 (≈ 1.65 µM)	2 (≈ 3.31 µM)	2 (≈ 3.31 µM)	1 (≈ 1.65 µM)	> 64	> 64			
C=C[C@]1(C)C[C@@H](OC(=O)CSc2nc3c(Br)cccc3c(=O)[nH]2)[C@]2(C)[C@H](C)CC[C@]3(CCC(=O)[C@H]32)[C@@H](C)[C@@H]1O	0.25 (≈ 0.405 µM)	0.25 (≈ 0.405 µM)	2 (≈ 3.24 µM)	0.5 (≈ 0.81 µM)	> 64	> 64			
C=C[C@]1(C)C[C@@H](OC(=O)CSc2nc3ccc(Br)cc3c(=O)[nH]2)[C@]2(C)[C@H](C)CC[C@]3(CCC(=O)[C@H]32)[C@@H](C)[C@@H]1O	0.25 (≈ 0.405 µM)	0.25 (≈ 0.405 µM)	2 (≈ 3.24 µM)	0.25 (≈ 0.405 µM)	> 64	> 64			
C=C[C@]1(C)C[C@@H](OC(=O)CSc2nc3cc(Br)ccc3c(=O)[nH]2)[C@]2(C)[C@H](C)CC[C@]3(CCC(=O)[C@H]32)[C@@H](C)[C@@H]1O	0.25 (≈ 0.405 µM)	0.5 (≈ 0.81 µM)	4 (≈ 6.48 µM)	0.25 (≈ 0.405 µM)	> 64	> 64			
C=C[C@]1(C)C[C@@H](OC(=O)CSc2nc3sccc3c(=O)[nH]2)[C@]2(C)[C@H](C)CC[C@]3(CCC(=O)[C@H]32)[C@@H](C)[C@@H]1O	0.25 (≈ 0.459 µM)	0.25 (≈ 0.459 µM)	1 (≈ 1.84 µM)	0.25 (≈ 0.459 µM)	64 (≈ 117 µM)	> 64			
C=C[C@]1(C)C[C@@H](OC(=O)CSc2nc3cccc(C)c3c(=O)[nH]2)[C@]2(C)[C@H](C)CC[C@]3(CCC(=O)[C@H]32)[C@@H](C)[C@@H]1O	0.25 (≈ 0.452 µM)	0.25 (≈ 0.452 µM)	2 (≈ 3.62 µM)	0.25 (≈ 0.452 µM)	> 64	> 64			
O=C(c1ccc(F)cc1)C1CCN(CCn2c(=O)[nH]c3ccccc3c2=O)CC1 [KETANSERIN]							33.5	88.9	27.9
C=C[C@]1(C)C[C@@H](OC(=O)CSc2nc3ccccc3c(=O)n2C)[C@]2(C)[C@H](C)CC[C@]3(CCC(=O)[C@H]32)[C@@H](C)[C@@H]1O	0.125 (≈ 0.226 µM)	0.25 (≈ 0.452 µM)	0.5 (≈ 0.905 µM)	0.063 (≈ 0.114 µM)	64 (≈ 116 µM)	> 64			
C=C[C@]1(C)C[C@@H](OC(=O)CSc2nc3ccccc3c(=O)n2C2CCCCC2)[C@]2(C)[C@H](C)CC[C@]3(CCC(=O)[C@H]32)[C@@H](C)[C@@H]1O	> 64	> 64	> 64	> 64	> 64	> 64			
C=C[C@]1(C)C[C@@H](OC(=O)CSc2nc3cc(C)ccc3c(=O)[nH]2)[C@]2(C)[C@H](C)CC[C@]3(CCC(=O)[C@H]32)[C@@H](C)[C@@H]1O	0.25 (≈ 0.452 µM)	0.5 (≈ 0.905 µM)	2 (≈ 3.62 µM)	0.5 (≈ 0.905 µM)	> 64	> 64			
C=C[C@]1(C)C[C@@H](OC(=O)CSc2nc3cc(OC)ccc3c(=O)[nH]2)[C@]2(C)[C@H](C)CC[C@]3(CCC(=O)[C@H]32)[C@@H](C)[C@@H]1O	0.25 (≈ 0.44 µM)	0.25 (≈ 0.44 µM)	1 (≈ 1.76 µM)	0.25 (≈ 0.44 µM)	> 64	> 64			
C=C[C@]1(C)C[C@@H](OC(=O)CSc2nc3cccc(F)c3c(=O)[nH]2)[C@]2(C)[C@H](C)CC[C@]3(CCC(=O)[C@H]32)[C@@H](C)[C@@H]1O	0.25 (≈ 0.449 µM)	0.25 (≈ 0.449 µM)	2 (≈ 3.59 µM)	0.25 (≈ 0.449 µM)	> 64	> 64			
C=C[C@]1(C)C[C@@H](OC(=O)CSc2nc3ccc(F)cc3c(=O)[nH]2)[C@]2(C)[C@H](C)CC[C@]3(CCC(=O)[C@H]32)[C@@H](C)[C@@H]1O	0.25 (≈ 0.449 µM)	0.5 (≈ 0.898 µM)	2 (≈ 3.59 µM)	0.25 (≈ 0.449 µM)	> 64	> 64			
C=C[C@]1(C)C[C@@H](OC(=O)CSc2nc3ccc(OC)cc3c(=O)[nH]2)[C@]2(C)[C@H](C)CC[C@]3(CCC(=O)[C@H]32)[C@@H](C)[C@@H]1O	0.25 (≈ 0.44 µM)	0.25 (≈ 0.44 µM)	4 (≈ 7.03 µM)	0.125 (≈ 0.22 µM)	> 64	> 64			
C=C[C@]1(C)C[C@@H](OC(=O)CSc2nc3c(c(=O)[nH]2)CCC3)[C@]2(C)[C@H](C)CC[C@]3(CCC(=O)[C@H]32)[C@@H](C)[C@@H]1O	0.25 (≈ 0.473 µM)	0.25 (≈ 0.473 µM)	1 (≈ 1.89 µM)	0.25 (≈ 0.473 µM)	> 64	> 64			
C=C[C@]1(C)C[C@@H](OC(=O)CSc2nc3ccc(Cl)cc3c(=O)[nH]2)[C@]2(C)[C@H](C)CC[C@]3(CCC(=O)[C@H]32)[C@@H](C)[C@@H]1O	0.25 (≈ 0.436 µM)	0.25 (≈ 0.436 µM)	1 (≈ 1.74 µM)	0.25 (≈ 0.436 µM)	> 64	> 64			
C=C[C@]1(C)C[C@@H](OC(=O)CSc2nc3c(C)cccc3c(=O)[nH]2)[C@]2(C)[C@H](C)CC[C@]3(CCC(=O)[C@H]32)[C@@H](C)[C@@H]1O	0.25 (≈ 0.452 µM)	0.125 (≈ 0.226 µM)	1 (≈ 1.81 µM)	0.125 (≈ 0.226 µM)	> 64	> 64			
C=C[C@]1(C)C[C@@H](OC(=O)CSc2nc3ccccc3c(=O)n2-c2ccccc2)[C@]2(C)[C@H](C)CC[C@]3(CCC(=O)[C@H]32)[C@@H](C)[C@@H]1O	32 (≈ 52 µM)	32 (≈ 52 µM)	64 (≈ 104 µM)	32 (≈ 52 µM)	> 64	> 64			
C=C[C@]1(C)C[C@@H](OC(=O)CSc2nc3cccc([N+](=O)[O-])c3c(=O)[nH]2)[C@]2(C)[C@H](C)CC[C@]3(CCC(=O)[C@H]32)[C@@H](C)[C@@H]1O	0.25 (≈ 0.428 µM)	0.25 (≈ 0.428 µM)	4 (≈ 6.85 µM)	0.25 (≈ 0.428 µM)	> 64	> 64			
C=C[C@]1(C)C[C@@H](OC(=O)CSc2nc3cc(F)ccc3c(=O)[nH]2)[C@]2(C)[C@H](C)CC[C@]3(CCC(=O)[C@H]32)[C@@H](C)[C@@H]1O	0.5 (≈ 0.898 µM)	0.5 (≈ 0.898 µM)	4 (≈ 7.19 µM)	0.25 (≈ 0.449 µM)	> 64	> 64			
C=C[C@]1(C)C[C@@H](OC(=O)CSc2nc3cc(Cl)ccc3c(=O)[nH]2)[C@]2(C)[C@H](C)CC[C@]3(CCC(=O)[C@H]32)[C@@H](C)[C@@H]1O	0.5 (≈ 0.872 µM)	0.5 (≈ 0.872 µM)	1 (≈ 1.74 µM)	0.25 (≈ 0.436 µM)	> 64	> 64			
C=C[C@]1(C)C[C@@H](OC(=O)CSc2nc3ccccc3c(=O)[nH]2)[C@]2(C)[C@H](C)CC[C@]3(CCC(=O)[C@H]32)[C@@H](C)[C@@H]1O	0.25 (≈ 0.464 µM)	0.25 (≈ 0.464 µM)	1 (≈ 1.86 µM)	0.25 (≈ 0.464 µM)	> 64	> 64			
C=C[C@]1(C)C[C@@H](OC(=O)CSc2nc3c(Cl)cccc3c(=O)[nH]2)[C@]2(C)[C@H](C)CC[C@]3(CCC(=O)[C@H]32)[C@@H](C)[C@@H]1O	0.125 (≈ 0.218 µM)	0.125 (≈ 0.218 µM)	1 (≈ 1.74 µM)	0.125 (≈ 0.218 µM)	> 64	> 64			
C=C[C@]1(C)C[C@@H](OC(=O)CSc2nc3ncccc3c(=O)[nH]2)[C@]2(C)[C@H](C)CC[C@]3(CCC(=O)[C@H]32)[C@@H](C)[C@@H]1O	4 (≈ 7.41 µM)	2 (≈ 3.71 µM)	8 (≈ 14.8 µM)	2 (≈ 3.71 µM)	> 64	> 64			
C=C[C@]1(C)C[C@@H](OC(=O)CSc2nc3ccc(C)cc3c(=O)[nH]2)[C@]2(C)[C@H](C)CC[C@]3(CCC(=O)[C@H]32)[C@@H](C)[C@@H]1O	0.5 (≈ 0.905 µM)	0.5 (≈ 0.905 µM)	2 (≈ 3.62 µM)	0.25 (≈ 0.452 µM)	> 64	> 64			
C=C[C@]1(C)C[C@@H](OC(=O)CSc2nc3ccccc3c(=O)n2CC)[C@]2(C)[C@H](C)CC[C@]3(CCC(=O)[C@H]32)[C@@H](C)[C@@H]1O	0.125 (≈ 0.221 µM)	0.25 (≈ 0.441 µM)	2 (≈ 3.53 µM)	0.125 (≈ 0.221 µM)	> 64	> 64			
C=C[C@]1(C)C[C@@H](OC(=O)CN2CCN(C(=O)c3nc4ccccc4c(=O)[nH]3)CC2)[C@]2(C)[C@H](C)CC[C@]3(CCC(=O)[C@H]32)[C@@H](C)[C@@H]1O	1 (≈ 1.62 µM)	0.5 (≈ 0.808 µM)	2 (≈ 3.23 µM)	0.5 (≈ 0.808 µM)	> 64	> 64			
C=C[C@]1(C)C[C@@H](OC(=O)CSc2nc3cccc(Br)c3c(=O)n2-c2ccccc2)[C@]2(C)[C@H](C)CC[C@]3(CCC(=O)[C@H]32)[C@@H](C)[C@@H]1O	> 64	> 64	> 64	> 64	> 64	> 64			
